Measurements published in paper PMC10222858 (Marine Drugs, 2023).
Where a SMILES comes first, the peptide text is derived from it.

Tests used:
rα6/α3β4 nAChRs = rα6/α3β4 nAChRs (Rattus norvegicus, UniProt P04757+P12392+P43143); assay: cell-based; type: cell-based
rα3β4 nAChRs = rα3β4 nAChRs (Rattus norvegicus, UniProt P04757+P12392); assay: cell-based; type: cell-based
rα3β4 nAChRs, sequence (P04757 26-499 limits assumed): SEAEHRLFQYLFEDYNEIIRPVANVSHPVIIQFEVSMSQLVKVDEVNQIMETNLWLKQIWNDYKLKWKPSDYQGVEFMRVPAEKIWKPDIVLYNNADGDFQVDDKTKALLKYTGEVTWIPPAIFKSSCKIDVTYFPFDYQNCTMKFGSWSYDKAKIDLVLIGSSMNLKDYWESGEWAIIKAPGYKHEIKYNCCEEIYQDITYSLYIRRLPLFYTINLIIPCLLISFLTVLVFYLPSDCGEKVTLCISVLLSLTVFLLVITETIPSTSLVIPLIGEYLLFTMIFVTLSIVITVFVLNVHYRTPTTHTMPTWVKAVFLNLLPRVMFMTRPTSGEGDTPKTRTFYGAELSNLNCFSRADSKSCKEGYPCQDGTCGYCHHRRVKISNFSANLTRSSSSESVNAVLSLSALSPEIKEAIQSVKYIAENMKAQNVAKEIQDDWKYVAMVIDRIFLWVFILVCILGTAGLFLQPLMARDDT
rα3β4 nAChRs, sequence (P12392 21-495 limits assumed): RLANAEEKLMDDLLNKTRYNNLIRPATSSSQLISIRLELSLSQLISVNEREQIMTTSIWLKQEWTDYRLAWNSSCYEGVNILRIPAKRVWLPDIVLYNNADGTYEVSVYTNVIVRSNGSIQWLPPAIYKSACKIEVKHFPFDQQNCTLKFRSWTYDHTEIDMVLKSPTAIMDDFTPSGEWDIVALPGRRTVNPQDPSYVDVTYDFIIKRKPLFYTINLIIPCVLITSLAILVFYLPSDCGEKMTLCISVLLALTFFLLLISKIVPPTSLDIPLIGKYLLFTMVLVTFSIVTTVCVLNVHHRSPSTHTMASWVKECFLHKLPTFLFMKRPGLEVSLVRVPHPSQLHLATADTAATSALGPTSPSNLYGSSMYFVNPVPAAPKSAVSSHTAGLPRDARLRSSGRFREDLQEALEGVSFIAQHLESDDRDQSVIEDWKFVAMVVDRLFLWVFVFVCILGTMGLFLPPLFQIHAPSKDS

rα6/α3β4 nAChRs, sequence (P04757 whole entry, looked up): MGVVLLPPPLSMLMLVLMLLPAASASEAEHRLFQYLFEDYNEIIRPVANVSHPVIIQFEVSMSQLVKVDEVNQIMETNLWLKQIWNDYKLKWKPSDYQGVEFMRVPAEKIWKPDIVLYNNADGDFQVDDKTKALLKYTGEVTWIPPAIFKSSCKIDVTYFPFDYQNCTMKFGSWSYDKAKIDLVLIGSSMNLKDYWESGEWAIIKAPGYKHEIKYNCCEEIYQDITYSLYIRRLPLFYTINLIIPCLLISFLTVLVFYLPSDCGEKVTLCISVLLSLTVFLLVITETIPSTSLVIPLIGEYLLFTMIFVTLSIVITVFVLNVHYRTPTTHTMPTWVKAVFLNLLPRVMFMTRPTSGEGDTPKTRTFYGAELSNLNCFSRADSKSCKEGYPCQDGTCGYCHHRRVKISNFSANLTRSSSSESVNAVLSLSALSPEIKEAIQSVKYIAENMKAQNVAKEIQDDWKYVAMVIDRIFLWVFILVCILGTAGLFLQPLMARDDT
rα6/α3β4 nAChRs, sequence (P12392 whole entry, looked up): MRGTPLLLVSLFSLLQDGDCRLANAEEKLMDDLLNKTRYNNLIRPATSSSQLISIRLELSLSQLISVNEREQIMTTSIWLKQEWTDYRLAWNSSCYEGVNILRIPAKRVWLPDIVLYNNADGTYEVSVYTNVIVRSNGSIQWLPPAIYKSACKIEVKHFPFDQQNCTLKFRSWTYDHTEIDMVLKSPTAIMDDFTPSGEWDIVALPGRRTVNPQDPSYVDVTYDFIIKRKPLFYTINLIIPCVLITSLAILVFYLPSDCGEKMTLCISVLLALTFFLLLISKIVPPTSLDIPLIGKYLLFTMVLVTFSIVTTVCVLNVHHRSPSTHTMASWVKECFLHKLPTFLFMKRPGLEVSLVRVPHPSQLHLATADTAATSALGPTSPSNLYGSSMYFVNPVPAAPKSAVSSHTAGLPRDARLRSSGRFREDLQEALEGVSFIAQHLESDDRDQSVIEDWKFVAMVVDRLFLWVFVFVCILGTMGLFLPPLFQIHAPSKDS
rα6/α3β4 nAChRs, sequence (P43143 whole entry, looked up): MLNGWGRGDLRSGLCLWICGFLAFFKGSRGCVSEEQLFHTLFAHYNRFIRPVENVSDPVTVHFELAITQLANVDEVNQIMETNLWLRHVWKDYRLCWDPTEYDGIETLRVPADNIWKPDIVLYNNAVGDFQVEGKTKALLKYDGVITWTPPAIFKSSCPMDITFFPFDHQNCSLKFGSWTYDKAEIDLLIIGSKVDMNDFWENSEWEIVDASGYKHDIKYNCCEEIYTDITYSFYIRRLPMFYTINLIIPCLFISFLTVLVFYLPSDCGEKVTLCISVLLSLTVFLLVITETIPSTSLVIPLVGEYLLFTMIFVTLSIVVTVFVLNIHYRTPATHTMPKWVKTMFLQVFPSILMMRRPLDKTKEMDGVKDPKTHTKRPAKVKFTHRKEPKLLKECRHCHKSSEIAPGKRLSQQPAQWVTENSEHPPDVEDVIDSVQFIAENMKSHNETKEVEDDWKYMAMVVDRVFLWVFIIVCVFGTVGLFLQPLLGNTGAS

SMILES	IC50 (rα6/α3β4 nAChRs)	IC50 (rα3β4 nAChRs)	inhibition of rα6/α3β4 nAChRs in words (rα6/α3β4 nAChRs)	blocking percentage of rα3β4 nAChRs (rα3β4 nAChRs)
CC[C@H](C)[C@@H]1NC(=O)[C@@H]2CCCN2C(=O)[C@H](C)NC(=O)[C@H](CO)NC(=O)[C@H](CCSC)NC(=O)[C@H](C)NC(=O)[C@H](CO)NC(=O)[C@@H]2CSSC[C@H](NC(=O)CN)C(=O)N[C@@H](CSSC[C@@H](C(N)=O)NC1=O)C(=O)N[C@@H](CO)C(=O)N[C@@H](Cc1c[nH]cn1)C(=O)N1CCC[C@H]1C(=O)N[C@@H](C(C)C)C(=O)N2 [[+13A]TxID] (HELM PEPTIDE1{G.C.C.S.H.P.V.C.S.A.M.S.A.P.I.C.[am]}$PEPTIDE1,PEPTIDE1,2:R3-8:R3|PEPTIDE1,PEPTIDE1,3:R3-16:R3$$$V2.0)	0.064 µM	0.0099 µM	–	–
CC[C@H](C)[C@@H]1NC(=O)[C@@H]2CCCN2C(=O)[C@H](CO)NC(=O)[C@H](CCSC)NC(=O)[C@H](C)NC(=O)[C@H](CO)NC(=O)[C@H](C)NC(=O)[C@@H]2CSSC[C@H](NC(=O)CN)C(=O)N[C@@H](CSSC[C@@H](C(N)=O)NC1=O)C(=O)N[C@@H](CO)C(=O)N[C@@H](Cc1c[nH]cn1)C(=O)N1CCC[C@H]1C(=O)N[C@@H](C(C)C)C(=O)N2 [[+9A]TxID] (HELM PEPTIDE1{G.C.C.S.H.P.V.C.A.S.A.M.S.P.I.C.[am]}$PEPTIDE1,PEPTIDE1,2:R3-8:R3|PEPTIDE1,PEPTIDE1,3:R3-16:R3$$$V2.0)	> 10 µM	> 10 µM	no obvious inhibition	less than fifty percent
CC[C@H](C)[C@@H]1NC(=O)[C@@H]2CCCN2C(=O)[C@H](CO)NC(=O)[C@H](CCSC)NC(=O)[C@H](C)NC(=O)[C@H](C)NC(=O)[C@H](CO)NC(=O)[C@@H]2CSSC[C@H](NC(=O)CN)C(=O)N[C@@H](CSSC[C@@H](C(N)=O)NC1=O)C(=O)N[C@@H](CO)C(=O)N[C@@H](Cc1c[nH]cn1)C(=O)N1CCC[C@H]1C(=O)N[C@@H](C(C)C)C(=O)N2 [[+10A]TxID] (HELM PEPTIDE1{G.C.C.S.H.P.V.C.S.A.A.M.S.P.I.C.[am]}$PEPTIDE1,PEPTIDE1,2:R3-8:R3|PEPTIDE1,PEPTIDE1,3:R3-16:R3$$$V2.0)	1.13 µM	> 10 µM	–	–
CC[C@H](C)[C@@H]1NC(=O)[C@@H]2CCCN2C(=O)[C@H](CO)NC(=O)[C@H](CCSC)NC(=O)[C@H](C)NC(=O)[C@H](CO)NC(=O)[C@@H]2CSSC[C@H](NC(=O)CN)C(=O)N[C@@H](CSSC[C@@H](C(N)=O)NC(=O)[C@H](C)NC1=O)C(=O)N[C@@H](CO)C(=O)N[C@@H](Cc1c[nH]cn1)C(=O)N1CCC[C@H]1C(=O)N[C@@H](C(C)C)C(=O)N2 [[+15A]TxID] (HELM PEPTIDE1{G.C.C.S.H.P.V.C.S.A.M.S.P.I.A.C.[am]}$PEPTIDE1,PEPTIDE1,2:R3-8:R3|PEPTIDE1,PEPTIDE1,3:R3-16:R3$$$V2.0)	0.037 µM	0.003 µM	–	–
CC[C@H](C)[C@@H]1NC(=O)[C@@H]2CCCN2C(=O)[C@H](CO)NC(=O)[C@H](C)NC(=O)[C@H](CCSC)NC(=O)[C@H](C)NC(=O)[C@H](CO)NC(=O)[C@@H]2CSSC[C@H](NC(=O)CN)C(=O)N[C@@H](CSSC[C@@H](C(N)=O)NC1=O)C(=O)N[C@@H](CO)C(=O)N[C@@H](Cc1c[nH]cn1)C(=O)N1CCC[C@H]1C(=O)N[C@@H](C(C)C)C(=O)N2 [[+12A]TxID] (HELM PEPTIDE1{G.C.C.S.H.P.V.C.S.A.M.A.S.P.I.C.[am]}$PEPTIDE1,PEPTIDE1,2:R3-8:R3|PEPTIDE1,PEPTIDE1,3:R3-16:R3$$$V2.0)	0.034 µM	0.049 µM	–	–
CC[C@H](C)[C@@H]1NC(=O)[C@H](C)NC(=O)[C@@H]2CCCN2C(=O)[C@H](CO)NC(=O)[C@H](CCSC)NC(=O)[C@H](C)NC(=O)[C@H](CO)NC(=O)[C@@H]2CSSC[C@H](NC(=O)CN)C(=O)N[C@@H](CSSC[C@@H](C(N)=O)NC1=O)C(=O)N[C@@H](CO)C(=O)N[C@@H](Cc1c[nH]cn1)C(=O)N1CCC[C@H]1C(=O)N[C@@H](C(C)C)C(=O)N2 [[+14A]TxID] (HELM PEPTIDE1{G.C.C.S.H.P.V.C.S.A.M.S.P.A.I.C.[am]}$PEPTIDE1,PEPTIDE1,2:R3-8:R3|PEPTIDE1,PEPTIDE1,3:R3-16:R3$$$V2.0)	0.368 µM	0.037 µM	–	–
